# Data taken from patent US11739098B2 (BRISTOL-MYERS SQUIBB COMPANY, priority 2017, dated 2023).
# Legend:
# Type in all cases: cell-based
# [1] = molecular target: T1, human TLR8 (Homo sapiens, UniProt Q9NR97); assay: TLR8 inhibition reporter assay (HEK-Blue cells, SEAP reporter, R848 stimulation); conditions: HEK-Blue cells overexpressing human TLR8, SEAP reporter, R848 15.9 μM
# T1 construct: host or cells: HEK-Blue cells (HEK293-derived reporter line)
# T1 sequence (Q9NR97 27-1041): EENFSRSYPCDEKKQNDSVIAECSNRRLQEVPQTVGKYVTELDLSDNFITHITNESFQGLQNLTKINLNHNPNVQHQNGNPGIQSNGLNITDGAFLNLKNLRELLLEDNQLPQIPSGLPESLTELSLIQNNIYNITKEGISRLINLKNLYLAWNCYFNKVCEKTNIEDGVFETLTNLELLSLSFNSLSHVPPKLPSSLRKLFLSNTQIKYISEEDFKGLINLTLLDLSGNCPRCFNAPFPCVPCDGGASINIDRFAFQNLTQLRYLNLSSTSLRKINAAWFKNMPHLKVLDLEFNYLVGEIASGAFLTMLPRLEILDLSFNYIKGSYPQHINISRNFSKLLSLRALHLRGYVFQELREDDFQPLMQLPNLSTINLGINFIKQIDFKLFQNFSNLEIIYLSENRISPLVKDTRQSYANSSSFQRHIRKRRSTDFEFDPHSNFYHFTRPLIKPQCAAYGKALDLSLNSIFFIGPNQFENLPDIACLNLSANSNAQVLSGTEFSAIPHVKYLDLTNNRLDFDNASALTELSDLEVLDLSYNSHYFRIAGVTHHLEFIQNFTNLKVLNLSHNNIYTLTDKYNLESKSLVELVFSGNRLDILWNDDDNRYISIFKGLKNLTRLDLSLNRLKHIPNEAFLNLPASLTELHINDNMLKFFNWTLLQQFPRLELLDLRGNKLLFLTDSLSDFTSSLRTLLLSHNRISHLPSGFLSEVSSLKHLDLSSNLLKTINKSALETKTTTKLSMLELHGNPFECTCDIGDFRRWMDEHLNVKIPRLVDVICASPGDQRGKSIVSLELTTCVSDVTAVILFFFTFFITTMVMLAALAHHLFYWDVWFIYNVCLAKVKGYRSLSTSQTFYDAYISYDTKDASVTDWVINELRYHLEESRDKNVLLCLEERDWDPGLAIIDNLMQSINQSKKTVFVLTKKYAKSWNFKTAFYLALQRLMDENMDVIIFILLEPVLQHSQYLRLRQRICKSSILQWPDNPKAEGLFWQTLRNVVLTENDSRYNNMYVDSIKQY
# Outline: (§1)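 HEK-Blue cells overexpressing human TLR7, TLR8 or TLR9 (NF-κB/AP-1-driven SEAP) pre-treated 30 min at room temperature with compound (0.05 nM–50 μM), then stimulated with gardiquimod 7.5 μM (TLR7), R848 15.9 μM (TLR8) or ODN2006 5 nM (TLR9). SEAP read colorimetrically after 22 h at 37 °C; % inhibition calculated.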
# [2] = molecular target: T2, human TLR7 (Homo sapiens, UniProt Q9NYK1); assay: TLR7 inhibition reporter assay (HEK-Blue cells, SEAP reporter, gardiquimod stimulation); conditions: HEK-Blue cells overexpressing human TLR7, SEAP reporter, gardiquimod 7.5 μM
# T2 construct: host or cells: HEK-Blue cells (HEK293-derived reporter line)
# T2 sequence (Q9NYK1 27-1049): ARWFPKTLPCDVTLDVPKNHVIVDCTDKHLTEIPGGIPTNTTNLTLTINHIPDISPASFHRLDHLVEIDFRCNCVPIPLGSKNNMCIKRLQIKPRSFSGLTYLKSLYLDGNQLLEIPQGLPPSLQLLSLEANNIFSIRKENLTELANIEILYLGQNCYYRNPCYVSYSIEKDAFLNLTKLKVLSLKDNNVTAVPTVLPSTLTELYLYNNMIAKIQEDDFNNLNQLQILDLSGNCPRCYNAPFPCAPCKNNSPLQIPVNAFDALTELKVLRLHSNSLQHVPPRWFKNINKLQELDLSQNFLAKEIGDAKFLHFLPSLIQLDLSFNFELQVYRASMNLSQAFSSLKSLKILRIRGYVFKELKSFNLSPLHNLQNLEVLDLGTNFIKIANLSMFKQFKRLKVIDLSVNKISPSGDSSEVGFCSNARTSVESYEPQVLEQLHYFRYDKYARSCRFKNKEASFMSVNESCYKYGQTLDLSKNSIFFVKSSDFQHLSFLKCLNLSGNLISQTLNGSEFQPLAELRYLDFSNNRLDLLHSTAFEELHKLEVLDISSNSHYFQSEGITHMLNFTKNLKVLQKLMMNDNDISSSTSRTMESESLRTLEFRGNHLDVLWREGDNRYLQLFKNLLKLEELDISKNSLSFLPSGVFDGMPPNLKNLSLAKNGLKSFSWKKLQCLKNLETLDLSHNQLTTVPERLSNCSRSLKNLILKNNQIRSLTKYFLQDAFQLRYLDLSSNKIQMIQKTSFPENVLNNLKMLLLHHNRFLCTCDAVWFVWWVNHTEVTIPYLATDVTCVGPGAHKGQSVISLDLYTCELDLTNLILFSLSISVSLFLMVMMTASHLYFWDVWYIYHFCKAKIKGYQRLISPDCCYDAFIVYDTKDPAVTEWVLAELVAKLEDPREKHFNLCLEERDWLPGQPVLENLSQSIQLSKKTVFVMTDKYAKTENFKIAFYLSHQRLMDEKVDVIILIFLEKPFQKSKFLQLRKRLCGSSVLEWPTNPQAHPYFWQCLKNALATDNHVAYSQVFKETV
# Outline: as §1
# [3] = molecular target: T3, human TLR9 (Homo sapiens, UniProt Q9NR96); assay: TLR9 inhibition reporter assay (HEK-Blue cells, SEAP reporter, ODN2006 stimulation); conditions: HEK-Blue cells overexpressing human TLR9, SEAP reporter, ODN2006 5 nM
# T3 construct: host or cells: HEK-Blue cells (HEK293-derived reporter line)
# T3 sequence (Q9NR96 26-1032): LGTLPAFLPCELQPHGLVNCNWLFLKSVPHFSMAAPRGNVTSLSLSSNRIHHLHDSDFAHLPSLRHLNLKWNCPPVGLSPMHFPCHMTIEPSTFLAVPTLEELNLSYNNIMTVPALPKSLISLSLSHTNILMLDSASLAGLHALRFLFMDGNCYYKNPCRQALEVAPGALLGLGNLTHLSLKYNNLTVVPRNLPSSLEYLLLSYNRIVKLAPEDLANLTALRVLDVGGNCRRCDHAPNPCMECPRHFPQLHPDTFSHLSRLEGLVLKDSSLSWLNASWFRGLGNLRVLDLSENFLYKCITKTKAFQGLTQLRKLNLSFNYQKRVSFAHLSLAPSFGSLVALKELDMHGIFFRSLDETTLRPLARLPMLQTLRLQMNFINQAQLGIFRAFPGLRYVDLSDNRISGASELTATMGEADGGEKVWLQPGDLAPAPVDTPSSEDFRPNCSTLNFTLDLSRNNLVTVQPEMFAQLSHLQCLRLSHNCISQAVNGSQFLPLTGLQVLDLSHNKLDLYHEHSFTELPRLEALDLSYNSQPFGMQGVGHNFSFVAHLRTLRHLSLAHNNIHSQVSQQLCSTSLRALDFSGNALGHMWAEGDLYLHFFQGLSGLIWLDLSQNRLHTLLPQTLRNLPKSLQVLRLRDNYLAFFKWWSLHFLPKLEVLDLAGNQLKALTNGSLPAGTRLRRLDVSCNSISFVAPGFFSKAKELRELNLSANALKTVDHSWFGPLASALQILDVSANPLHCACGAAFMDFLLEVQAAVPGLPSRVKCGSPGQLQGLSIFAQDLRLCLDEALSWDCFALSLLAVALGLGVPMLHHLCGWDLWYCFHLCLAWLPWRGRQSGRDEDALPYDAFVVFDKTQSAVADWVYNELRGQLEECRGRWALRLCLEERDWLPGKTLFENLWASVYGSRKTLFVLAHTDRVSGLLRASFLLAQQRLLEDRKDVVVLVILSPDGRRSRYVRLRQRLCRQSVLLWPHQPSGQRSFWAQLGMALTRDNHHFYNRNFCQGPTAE
# Outline: as §1
IC50 [1] [nM],IC50 [2] [nM],IC50 [3] [nM],SMILES
< 100,< 100,1000 to 50000,"Cc1cc(-c2[nH]c3ccc(C4CCN(C(=O)CN5CCOCC5)CC4)cc3c2C(C)C)cn2nnnc12 [Example 476, 1-(4-(3-isopropyl-2-(8-methyltetrazolo[1,5-a]pyridin-6-yl)-1H-indol-5-yl)piperidin-1-yl)-2-morpholinoethan-1-one]"
100 to 1000,< 100,1000 to 50000,"Cc1cc(-c2[nH]c3ccc(C4CCN(C5CCOCC5)CC4)cc3c2C(C)C)cc2cccnc12 [Example 704, 6-(3-isopropyl-5-(1-(tetrahydro-2H-pyran-4-yl)piperidin-4-yl)-1H-indol-2-yl)-8-methylquinoline]"
< 100,< 100,1000 to 50000,"Cc1c(-c2[nH]c3ccc(C4CCN(C5CCOCC5)CC4)cc3c2C(C)C)c2cccnc2n1C [Example 691, 3-(3-isopropyl-5-(1-(tetrahydro-2H-pyran-4-yl)piperidin-4-yl)-1H-indol-2-yl)-1,2-dimethyl-1H-pyrrolo[2,3-b]pyridine]"
< 100,< 100,1000 to 50000,"COCCN1CCC(c2ccc3[nH]c(-c4cc(C)n5ncnc5c4)c(C(C)C)c3c2)CC1 [Example 779, 7-(3-isopropyl-5-(1-(2-methoxyethyl)piperidin-4-yl)-1H-indol-2-yl)-5-methyl-[1,2,4]triazolo[1,5-a]pyridine]"
100 to 1000,< 100,1000 to 50000,"CC(C)c1c(-c2ccn3nnnc3c2)[nH]c2ccc(C3CCN(CC(=O)N(C)C)CC3)cc12 [Example 304, 2-(4-(3-isopropyl-2-(tetrazolo[1,5-a]pyridin-7-yl)-1H-indol-5-yl)piperidin-1-yl)-N,N-dimethylacetamide]"
< 100,< 100,1000 to 50000,"Cc1cc(-c2[nH]c3ccc(C4CCN(C(=O)CN(C)C)CC4)cc3c2C(C)C)c(C)n2nnnc12 [Example 469, 2-(dimethylamino)-1-(4-(2-(5,8-dimethyltetrazolo[1,5-a]pyridin-6-yl)-3-isopropyl-1H-indol-5-yl)piperidin-1-yl)ethan-1-one]"
< 100,100 to 1000,1000 to 50000,"Cc1c(-c2[nH]c3ccc(C4CCN(CC(=O)N(C)C)CC4)cc3c2C(C)C)ccc2nnnn12 [Example 308, 2-(4-(3-isopropyl-2-(5-methyltetrazolo[1,5-a]pyridin-6-yl)-1H-indol-5-yl)piperidin-1-yl)-N,N-dimethylacetamide]"
< 100,< 100,1000 to 50000,"COc1cc(-c2[nH]c3ccc(C4CCN(C5COC5)CC4)cc3c2C(C)C)cc2ncnn12 [Example 710, 7-(3-isopropyl-5-(1-(oxetan-3-yl)piperidin-4-yl)-1H-indol-2-yl)-5-methoxy-[1,2,4]triazolo[1,5-a]pyridine]"

# The remaining lines, values behind:
SMILES,IC50 [1] [nM],IC50 [2] [nM],IC50 [3] [nM]
"CC(C)c1c(-c2ccnc3[nH]ncc23)[nH]c2ccc(C3CCN(C(=O)c4cscn4)CC3)cc12 [Example 611, (4-(3-isopropyl-2-(1H-pyrazolo[3,4-b]pyridin-4-yl)-1H-indol-5-yl)piperidin-1-yl)(thiazol-4-yl)methanone]",100 to 1000,< 100,1000 to 50000
"Cc1c(-c2ccnc3[nH]ccc23)[nH]c2ccc(C3CCN(C4CCN(C(C)C)CC4)CC3)cc12 [Example 813, 4-(5-(1′-isopropyl-[1,4′-bipiperidin]-4-yl)-3-methyl-1H-indol-2-yl)-1H-pyrrolo[2,3-b]pyridine]",< 100,< 100,< 100
"CC(C)c1c(-c2cnc3nn(C)cc3c2)[nH]c2ccc(C3CCN(CC(C)(C)O)CC3)cc12 [Example 765, 1-(4-(3-isopropyl-2-(2-methyl-2H-pyrazolo[3,4-b]pyridin-5-yl)-1H-indol-5-yl)piperidin-1-yl)-2-methylpropan-2-ol]",1000 to 50000,100 to 1000,1000 to 50000
"Cc1cc2cc(-c3[nH]c4ccc(C5CCN(C6COC6)CC5)cc4c3C(C)C)cc(CC(C)C)n2n1 [Example 716, 7-isobutyl-5-(3-isopropyl-5-(1-(oxetan-3-yl)piperidin-4-yl)-1H-indol-2-yl)-2-methylpyrazolo[1,5-a]pyridine]",> 3130,> 3130,1000 to 50000
"CC(C)c1c(-c2ccnc3[nH]ncc23)[nH]c2cc(F)c(C3CCN(CC4CCN(C(C)C)C4)CC3)cc12 (stereo not drawn) [Example 852, 4-(6-fluoro-3-isopropyl-5-(1-((1-isopropylpyrrolidin-3-yl)methyl)piperidin-4-yl)-1H-indol-2-yl)-1H-pyrazolo[3,4-b]pyridine]",< 100,< 100,100 to 1000
"Cc1cn2c(C)cc(-c3[nH]c4ccc(C5CCNCC5)cc4c3C(C)C)cc2n1 [Example 160, 7-(3-isopropyl-5-(piperidin-4-yl)-1H-indol-2-yl)-2,5-dimethylimidazo[1,2-a]pyridine]",100 to 1000,100 to 1000,100 to 1000
